Data taken from article PMC6236115, “The 9H-Fluoren Vinyl Ether Derivative SAM461 Inhibits Bacterial Luciferase Activity and Protects Artemia franciscana From Luminescent Vibriosis” (Frontiers in Cellular and Infection Microbiology, 2018).

Target: T1, Vibrio fischeri luciferase (VfLuc) (Aliivibrio fischeri, UniProt P19907)
T1 construct: gene luxA; commercial Vibrio fischeri luciferase (Sigma-Aldrich L8507), with FMN reductases; with luciferase beta subunit (LuxB)
T1 sequence (P19907 1-354): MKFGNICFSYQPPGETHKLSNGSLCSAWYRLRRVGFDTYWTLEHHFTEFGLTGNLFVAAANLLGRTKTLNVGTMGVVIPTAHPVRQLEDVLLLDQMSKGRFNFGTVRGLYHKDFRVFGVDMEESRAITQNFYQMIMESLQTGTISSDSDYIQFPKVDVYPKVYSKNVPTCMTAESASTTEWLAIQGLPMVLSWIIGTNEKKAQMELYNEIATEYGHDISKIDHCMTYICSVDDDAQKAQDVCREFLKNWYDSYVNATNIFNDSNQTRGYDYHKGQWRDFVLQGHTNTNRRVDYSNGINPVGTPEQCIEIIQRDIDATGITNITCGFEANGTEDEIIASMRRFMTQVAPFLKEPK
T1 sequence (P19908 1-326 partner): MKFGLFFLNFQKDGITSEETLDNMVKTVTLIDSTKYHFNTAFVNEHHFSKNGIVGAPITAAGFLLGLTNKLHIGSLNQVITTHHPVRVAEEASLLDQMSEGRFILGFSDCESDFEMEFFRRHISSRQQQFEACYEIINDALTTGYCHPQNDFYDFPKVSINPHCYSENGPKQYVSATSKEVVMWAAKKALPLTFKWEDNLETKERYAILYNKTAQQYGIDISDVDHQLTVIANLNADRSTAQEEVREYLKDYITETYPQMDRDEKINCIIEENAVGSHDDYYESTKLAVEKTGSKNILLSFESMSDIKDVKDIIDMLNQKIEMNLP
Assay: luminescence enzyme assay, coupled with FMN reductase, 12-point titration
Format: biochemical

IC50: 191 µM
SMILES: COC(=O)/C=C/OC1c2ccccc2-c2ccccc21 [SAM461, (E)-Methyl 3-((9H-fluoren-9-yl)oxy)acrylate]
